Tests used:
carrageenan foot edema = assay: Rat Carrageenan Foot Pad Edema Test; format: in vivo, rat (male Sprague-Dawley); details: @ 10 mg/kg body weight, oral, 3 h after carrageenan
Procedure: (§1) The carrageenan foot edema test was performed with materials, reagents and procedures essentially as described by Winter, et al., (Proc. Soc. Exp. Biol. Med., 111, 544 (1962) Male Sprague-Dawlev rats were selected in each group so that the average body weight was as close as possible. Rats were fasted with free access to water for over sixteen hours prior to the test. The rats were dosed orally (1 mL) with compounds suspended in vehicle containing 0.5% methylcellulose and 0.025% surfactant, or with vehicle alone. one hour later a subplantar injection of 0.1 mL of 1% solution of carrageenan/sterile 0.9% saline was administered and the volume of the injected foot was measured with a displacement plethysmometer connected to a pressure transducer with a digital indicator. Three hours after the injection of the carrageenan, the volume of the foot was again measured. The average foot swelling in a group of drug-treated animals was compared with that of a group of placebo-treated animals and the percentage inhibition of edema was determined (Otterness and Bliven, Laboratory Models for Testing NSAIDs, in Non-steroidal Anti-Inflammatory Drugs, (J. Lombardino, ed. 1985)).

[1] = tested on: carrageenan-induced hyperalgesic foot withdrawal; assay: Rat Carrageenan-induced Analgesia Test; format: in vivo, rat (male Sprague-Dawley); details: oral, 3 h after carrageenan
Procedure: as §1
The analgesia test using rat carrageenan was performed with materials, reagents and procedures essentially as described by Hargreaves, et al., (Pain, 32, 77 (1988)). Male Sprague-Dawley rats were treated as previously described, for the Carrageenan Foot Pad Edema test. Three hours after the injection of the carrageenan, the rats were placed in a special plexiglass container with a transparent floor having a high intensity lamp as a radiant heat source, positionable under the floor. After an initial twenty minute period, thermal stimulation was begun on either the injected foot or on the contralateral uninjected foot. […] The time until the rat withdraws its foot was then measured. The withdrawal latency in seconds was determined for the control and drug-treated groups, and percent inhibition of the hyperalgesic foot withdrawal determined.

[2] = reported in cited literature or patents; cited from earlier work
COX II enzyme = details: J. Biol. Chem., 268, 6610 (1993); cited from earlier work
prostaglandin synthetase = details: U.S. Pat. No. 4,820,827; cited from earlier work
[3] = Gen. Pharmac., 24, 105 (1993); cited from earlier work
Murine COX I = target: T1, Murine COX I (Mus musculus, UniProt P22437); assay: COX I activity in vitro (PGE2 ELISA, recombinant enzyme); format: biochemical; details: arachidonic acid 10 μM, read-out: Murine COX I ID50
T1 construct: A 2.0 kb fragment containing the coding region; made in house; host or cells: SF9 insect cells (recombinant baculovirus, pVL1393)
T1 sequence (P22437 27-602): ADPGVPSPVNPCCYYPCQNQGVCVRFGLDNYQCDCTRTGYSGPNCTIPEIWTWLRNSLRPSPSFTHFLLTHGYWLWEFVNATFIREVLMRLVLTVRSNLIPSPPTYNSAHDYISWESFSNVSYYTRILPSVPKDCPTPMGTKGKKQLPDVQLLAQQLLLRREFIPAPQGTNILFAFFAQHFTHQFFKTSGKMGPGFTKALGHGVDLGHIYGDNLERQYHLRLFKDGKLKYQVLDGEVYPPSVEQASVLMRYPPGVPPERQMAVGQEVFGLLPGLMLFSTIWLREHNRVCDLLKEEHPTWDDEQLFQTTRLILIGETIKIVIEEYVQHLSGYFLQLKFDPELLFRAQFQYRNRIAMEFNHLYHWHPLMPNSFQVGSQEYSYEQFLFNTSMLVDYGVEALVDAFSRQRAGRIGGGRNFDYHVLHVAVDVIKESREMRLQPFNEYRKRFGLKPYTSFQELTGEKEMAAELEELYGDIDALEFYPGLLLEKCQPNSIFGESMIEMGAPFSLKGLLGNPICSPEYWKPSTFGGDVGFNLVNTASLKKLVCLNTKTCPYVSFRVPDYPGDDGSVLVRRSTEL
Procedure: (§2) A 2.0 kb fragment containing the coding region of either human or murine COX-I or human or murine COX-II was cloned into a BamH1 site of the baculovirus transfer vector pVL1393 to generate the baculovirus transfer vector. Recombinant baculoviruses were isolated by transfecting 4 μg of baculovirus transfer vector DNA into SF9 cells (2×10e8) along with 200 ng of linearized baculovirus plasmid DNA by the calcium phosphate method. Recombinant viruses were purified by three rounds of plaque purification and high titer (10E7-10E8 pfu/ml) stocks of virus were prepared. For large scale production, SF9 insect cells were infected in 10 liter fermentors (Bioprocess group) 0.5×10^6 /ml) with the recombinant baculovirus stock such that the multiplicity of infection was 0.1. […] The homogenate was centrifuged at 10,000×G for 30 minutes, and the resultant supernatant was stored at -80° C. before being assayed for COX activity.
(§3) COX activity was assayed as PGE2 formed/μg protein/time using an ELISA to detect the prostaglandin released. CHAPS-solubilized insect cell membranes containing the appropriate COX enzyme were incubated in a potassium phosphate buffer (50 mM, pH 8.0) containing epinephrine, phenol, and heme with the addition of arachidonic acid (10 μM). […] The PGE2 formed was measured by standard ELISA technology (Cayman Chemical).

Murine COX II = target: T2, Murine COX II (Mus musculus, UniProt Q05769); assay: COX II activity in vitro (PGE2 ELISA, recombinant enzyme); format: biochemical; details: arachidonic acid 10 μM, read-out: Murine COX II ID50
T2 construct: A 2.0 kb fragment containing the coding region; made in house; host or cells: SF9 insect cells (recombinant baculovirus, pVL1393)
T2 sequence (Q05769 18-604): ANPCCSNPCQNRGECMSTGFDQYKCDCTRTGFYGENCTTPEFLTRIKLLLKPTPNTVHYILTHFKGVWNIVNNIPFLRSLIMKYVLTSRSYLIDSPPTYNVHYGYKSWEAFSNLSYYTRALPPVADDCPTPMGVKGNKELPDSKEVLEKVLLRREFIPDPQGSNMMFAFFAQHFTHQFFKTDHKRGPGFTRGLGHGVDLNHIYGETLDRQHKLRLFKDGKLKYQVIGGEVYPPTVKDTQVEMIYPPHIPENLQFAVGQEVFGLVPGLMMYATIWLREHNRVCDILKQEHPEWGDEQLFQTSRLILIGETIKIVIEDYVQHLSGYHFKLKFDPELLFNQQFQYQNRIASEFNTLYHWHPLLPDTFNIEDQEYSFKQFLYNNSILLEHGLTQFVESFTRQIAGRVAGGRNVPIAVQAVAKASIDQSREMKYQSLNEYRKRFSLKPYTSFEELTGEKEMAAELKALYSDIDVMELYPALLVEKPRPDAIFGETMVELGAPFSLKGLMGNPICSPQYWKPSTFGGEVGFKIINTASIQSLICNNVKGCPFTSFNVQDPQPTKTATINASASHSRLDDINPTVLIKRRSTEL
Procedure: as §2, §3

SMILES: CS(=O)(=O)c1ccc(-c2csc(Br)c2-c2ccc(F)cc2)cc1 [Example 2, 4-(4-Methylsulfonylphenyl)-3-(4-fluorophenyl)-2-bromothiophene]
- RAT PAW EDEMA % Inhibition (carrageenan foot edema): 30%
- ANALGESIA % Inhibition ([1]; @3 mpk): 0%

SMILES: CS(=O)(=O)c1ccc(-c2cscc2-c2ccc(F)nc2)cc1 [Example 14]
- RAT PAW EDEMA % Inhibition (carrageenan foot edema): 30%
- ANALGESIA % Inhibition ([1]; @ 20 mg/kg body weight): 28%

SMILES: CCOC(=O)CCc1scc(-c2ccccc2)c1-c1ccccc1 [ethyl 3,4-diphenylthiophene-2-propionate]
- antiinflammatory activity [2]: antiinflammatory activity

SMILES: Cc1cc(F)ccc1-c1cscc1-c1ccc(S(C)(=O)=O)cc1 [Example 15]
- RAT PAW EDEMA % Inhibition (carrageenan foot edema): 20%

SMILES: COc1ccc2cc(CC(=O)O)ccc2c1 [6-methoxy-2-napthylacetic acid]
- inhibition of the COX II enzyme (COX II enzyme): selectively inhibit the COX II enzyme

SMILES: CSc1ccc(-c2sc(Br)cc2-c2ccc(F)cc2)cc1 [5-bromo-2-(4-methylthiophenyl)-3-(4-fluorophenyl)thiophene]
- antiinflammatory activity [2]: antiinflammatory
- prostaglandin synthetase inhibitory activity (prostaglandin synthetase): prostaglandin synthetase inhibitory activity

SMILES: CS(=O)(=O)Nc1ccc([N+](=O)[O-])cc1OC1CCCCC1 [N-(2-cyclohexyloxy-4-nitrophenyl)methanesulfonamide]
- antiinflammatory activity [2]: antiinflammatory
- gastric side effects [3]: lacks gastric side effects

SMILES: CS(=O)(=O)c1ccc(-c2c(Br)sc(Br)c2-c2ccc(F)cc2)cc1 [Example 3, 4-(4-Methylsulfonylphenyl)-3-(4-fluorophenyl)-2,5-dibromothiophene]
- IC50 (Murine COX I): 100 µM

SMILES: CS(=O)(=O)c1ccc(-c2cscc2-c2ccc(F)cc2)cc1 [Example 1, 3-(4-Methylsulfonylphenyl)-4-(4-fluorophenyl)thiophene]
- ANALGESIA % Inhibition ([1]; @ 20 mg/kg body weight): 8%

SMILES: COc1ccc(-c2cscc2-c2ccc(OC)cc2)cc1 [Example 4, 3,4-Bis(4-methoxyphenyl)thiophene]
- RAT PAW EDEMA % Inhibition (carrageenan foot edema): 22%

SMILES: CCOC(=O)c1sc(C(=O)O)c(-c2ccc(F)cc2)c1-c1ccc(S(C)(=O)=O)cc1 [Example 8, 2-Ethoxycarbonyl-4-(4-fluorophenyl)-3-(4-methanesulfonylphenyl)-thienyl-5-carboxylic acid]
- IC50 (Murine COX I): > 100 µM
- IC50 (Murine COX II): 5.5 µM

Reference: US6274590A, “Method of treating skin related conditions” (G. D. Searle & Co., priority 2000, dated 2001)
